Tested on: M1 macrophages and M2 macrophages differentiated from mouse bone marrow cells
Experiment: Subtype identification by staining and flow cytometry of M1 and M2 macrophages differentiated from mouse bone marrow cells
Type: cell-based, Balb/c mouse
Description: The culture of subtypes was performed according to a protocol described in NPL 7. Specifically, bone marrow cells collected from the femur of a Balb/c mouse of 8 to 10 weeks old were dispersed to a concentration of 1×10^6/mL in an IMDM containing 20% FBS and 1% P/S, and 1×10^7 cells were seeded in a 100 mm dish. After further adding an M-CSF (manufactured by Pepro Tech) thereto to a concentration of 50 ng/mL, the cells were incubated for 3 to 4 days in the presence of 5% CO2 at 37° C., so as to differentiate macrophage precursor cells to macrophages. After exchanging the medium, the M-CSF was added to a concentration of 50 ng/mL, and the incubation was performed for further 3 to 4 days in the presence of 5% CO2 at 37° C., and then, the resulting cells were differentiated to macrophage. By adding 200 ng of interferon-γ and 1 μg of […] (both manufactured by Pepro Tech) to the IMDM containing 5% FBS and 1% P/S, the cells were differentiated to the subtype M1. Besides, by adding 100 ng of IL-4 to the IMDM containing 5% FBS and 1% P/S, the cells were differentiated to the subtype M2. After performing the incubation for further 3 days in the presence of 5% CO2 at 37° C., the resultant was rinsed with PBS, and PBS containing 0.25% trypsin and 1 mM EDTA (ethylenediaminetetraacetic acid) was used for collecting, from the dish, the macrophages having been differentiated to the subtypes M1 and M2.
Thereafter, the tube was centrifuged at 180 G for 10 minutes to remove the supernatant, a dye for identifying dead cells (aqua fluorescent reactive dye, manufactured by Invitrogen; which is hereinafter sometimes abbreviated as aqua) was added thereto, and the resultant was incubated at 4° C. for 10 minutes. Subsequently, the tube was centrifuged at 180 G for 10 minutes to remove the supernatant, cells were suspended in a FACS buffer to be analyzed by using FACSCanto (trademark) II flow cytometry apparatus manufactured by BD.
The analysis was performed on a cell population showing a low signal for the aqua, so as to analyze a cell population from which dead cells were eliminated. […] A histogram was prepared by plotting fluorescence intensity obtained in the FITC channel on the abscissa and plotting the number of cells at each fluorescence intensity on the ordinate, which is shown in FIG. 2.
Histograms were prepared by plotting fluorescence intensities obtained in the respective channels on the abscissa and plotting the numbers of cells at each fluorescence intensity on the ordinate. A difference between a fluorescence intensity (FM1) at a peak top of the histogram of the M1 macrophage and a fluorescence intensity (FM2) at a peak top of the histogram of the M2 macrophage is divided by a sum of a peak width (WM1) of the histogram of the M1 macrophage and a peak width (WM2) of the histogram of the M2 macrophage, so as to obtain a resolution R, which was used as an index of the identification ability for a subtype (see the following expression (1)). Resolution R=|FM1−FM2|/(WM1+WM2) Expression (1)

[1] = R=|FM1−FM2|/(WM1+WM2), compound 1 μM
[2] = fluorescence intensity at peak top of histogram, compound 1 μM, 37° C., 30 minutes
[3] = M1 vs M2 macrophages from mouse bone marrow cells, general formula (11) dyes (Table 9)
[4] = class based on resolution R, general formula (11) dyes (Table 9)
[5] = mouse bone marrow-derived M1 macrophages, channel listed per compound, general formula (11) dyes (Table 9)
[6] = mouse bone marrow-derived M2 macrophages, channel listed per compound, general formula (11) dyes (Table 9)

Compound | Resolution ratio R [1] | Peak position of M1 macrophage [2] | Peak position of M2 macrophage [2] | Evaluation of macrophage subtype identification (rated from resolution R) | also measured
O=C(O)Cn1c(=O)/c(=C\c2ccc3c(c2)C2CCCC2N3c2ccc(C=C(c3ccccc3)c3ccccc3)cc2)s/c1=C1/CC(=S)N(Cc2ccccc2)C1=O (centres unmarked) [(20)] | 0.290 | 4.47 | 2.10 | B (the compound is good in the subtype identification (namely, the resolution R is 0.15 or more and less than 0.5)) | 
CCN(CC)c1ccc2cc(-c3nc4ccccc4n3C)c(=O)oc2c1 [(119)] |  |  |  |  | Resolution ratio R (M1 vs M2 macrophages from mouse bone marrow cells, general formula (10) dyes (Table 8)): 0.273; Evaluation of macrophage subtype identification (class based on resolution R, general formula (10) dyes (Table 8)): B (the compound is good in the subtype identification (namely, the resolution R is 0.15 or more and less than 0.5)); Peak position of M1 macrophage (mouse bone marrow-derived M1 macrophages, channel listed per compound, general formula (10) dyes (Table 8)): 2.60; Peak position of M2 macrophage (mouse bone marrow-derived M2 macrophages, channel listed per compound, general formula (10) dyes (Table 8)): 3.94
Cc1cc(C)n2c1C=C1C=CC(CCC(=O)NN)=[N+]1[B-]2(F)F [(166)] |  |  |  |  | Resolution ratio R [3]: 0.722; Evaluation of macrophage subtype identification [4]: A (The compound is very good in the subtype identification (namely, the resolution R is 0.5 or more)); Peak position of M1 macrophage [5]: 127; Peak position of M2 macrophage [6]: 56.3
C=CCN1C(=O)/C(=c2\s/c(=C/c3ccc4c(c3)C3CCCC3N4Cc3ccccc3)c(=O)n2CC(=O)OCC)SC1=S (centres unmarked) [(52)] | 0.756 | 3.90 | 1.68 | A (The compound is very good in the subtype identification (namely, the resolution R is 0.5 or more)) | 
CCOC(=O)CN1C(=O)/C(=C\c2ccc3c(c2)C2CCCC2N3c2ccccc2)SC1=S (centres unmarked) [(48)] | 0.621 | 65.4 | 9.74 | A (The compound is very good in the subtype identification (namely, the resolution R is 0.5 or more)) | 
COC(=O)COc1ccc(/C=C/C2=[N+]3C(=Cc4ccc(-c5cccs5)n4[B-]3(F)F)C=C2)cc1 [compound (161)] |  |  |  |  | Resolution ratio R [3]: 0.582; Evaluation of macrophage subtype identification [4]: A (The compound is very good in the subtype identification (namely, the resolution R is 0.5 or more)); Peak position of M1 macrophage [5]: 38.4; Peak position of M2 macrophage [6]: 9.02; subtype more strongly stained (two compounds used in combination, each 1 μM): the M1 macrophages show higher fluorescence intensity in the APC channel than the M2 macrophages
CCN1C(=O)S/C(=c2/s/c(=C/c3ccc4c(c3)C3CCCC3N4c3ccc(OC)cc3)c(=O)n2CC(=O)O)C1=O (centres unmarked) [(44)] | 0.330 | 24.5 | 12.9 | B (the compound is good in the subtype identification (namely, the resolution R is 0.15 or more and less than 0.5)) | 
O=C(O)CCN1C(=O)/C(=C\c2ccc3c(c2)C2CCCC2N3c2ccccc2)SC1=S (centres unmarked) [(13)] | 0.714 | 7.74 | 20.4 | A (The compound is very good in the subtype identification (namely, the resolution R is 0.5 or more)) | 
Cc1cc(C)n2c1C=C1C=CC(CCC(=O)c3c(F)c(F)c(S(=O)(=O)O)c(F)c3F)=[N+]1[B-]2(F)F [(167)] |  |  |  |  | Resolution ratio R [3]: 0.525; Evaluation of macrophage subtype identification [4]: A (The compound is very good in the subtype identification (namely, the resolution R is 0.5 or more)); Peak position of M1 macrophage [5]: 14.5; Peak position of M2 macrophage [6]: 7.82
CC1(C)C(/C=C/c2ccc3c(c2)C2CCCC2N3c2ccc(C=C(c3ccccc3)c3ccccc3)cc2)=[N+](CCC(=O)O)c2ccccc21 (centres unmarked) [(59)] | 0.733 | 188 | 325 | A (The compound is very good in the subtype identification (namely, the resolution R is 0.5 or more)) | 
CCN1/C(=C\C=C\c2sc3ccccc3[n+]2CC)Sc2ccccc21 [(100)] |  |  |  |  | Resolution ratio R (M1 vs M2 macrophages from mouse bone marrow cells, general formula (6) dyes (Table 7)): 0.372; Evaluation of macrophage subtype identification (class based on resolution R, general formula (6) dyes (Table 7)): B (the compound is good in the subtype identification (namely, the resolution R is 0.15 or more and less than 0.5)); Peak position of M1 macrophage (mouse bone marrow-derived M1 macrophages, channel listed per compound, general formula (6) dyes (Table 7)): 16.41; Peak position of M2 macrophage (mouse bone marrow-derived M2 macrophages, channel listed per compound, general formula (6) dyes (Table 7)): 32.87
CCOC(=O)Cn1c(=O)/c(=C\c2ccc3c(c2)C2CCCC2N3Cc2ccccc2)s/c1=C1/SC(=S)N(CC)C1=O (centres unmarked) [(55)] | 0.206 | 2.34 | 1.86 | B (the compound is good in the subtype identification (namely, the resolution R is 0.15 or more and less than 0.5)) | 
COc1ccc(N2c3ccc(/C=C4/SC(=S)N(CC(=O)O)C4=O)cc3C3CCCC32)cc1 (centres unmarked) [(25)] | 0.346 | 27.4 | 18.2 | B (the compound is good in the subtype identification (namely, the resolution R is 0.15 or more and less than 0.5)) | 
N#C/C(=C\C=C\c1ccc2c(c1)C1CCCC1N2c1ccc(C=C(c2ccccc2)c2ccccc2)cc1)C(=O)O (centres unmarked) [(74)] | 0.538 | 2.52 | 1.25 | A (The compound is very good in the subtype identification (namely, the resolution R is 0.5 or more)) | 
COc1ccc2cc(N3c4ccc(/C=C5/SC(=S)N(CCC(=O)O)C5=O)cc4C4CCCC43)ccc2c1 (centres unmarked) [(22)] | 0.389 | 199 | 313 | B (the compound is good in the subtype identification (namely, the resolution R is 0.15 or more and less than 0.5)) | 
CC1=C(S(=O)(=O)O)C(C)=[N+]2C1=C(C)c1c(C)c(S(=O)(=O)O)c(C)n1[B-]2(F)F [(165)] |  |  |  |  | Resolution ratio R [3]: 0.183; Evaluation of macrophage subtype identification [4]: B (the compound is good in the subtype identification (namely, the resolution R is 0.15 or more and less than 0.5)); Peak position of M1 macrophage [5]: 1.25; Peak position of M2 macrophage [6]: 2.00
CCCN1c2ccc(/C=C3/SC(=S)N(CCC(=O)O)C3=O)cc2C2CCCC21 (centres unmarked) [(9)] | 0.828 | 2.63 | 6.69 | A (The compound is very good in the subtype identification (namely, the resolution R is 0.5 or more)) | 
CSc1ccc(N2c3ccc(/C=C4/SC(=S)N(CC(=O)O)C4=O)cc3C3CCCC32)cc1 (centres unmarked) [(30)] | 0.257 | 55.1 | 73.9 | B (the compound is good in the subtype identification (namely, the resolution R is 0.15 or more and less than 0.5)) | 
COc1ccc(N2c3ccc(/C=C/C4=[N+](C)c5ccccc5C4(C)C)cc3C3CCCC32)cc1 (centres unmarked) [(62)] | 0.561 | 193 | 333 | A (The compound is very good in the subtype identification (namely, the resolution R is 0.5 or more)) | Selectivity (subtype strongly stained): M2
CCN1c2ccc(/C=C/c3sc4ccccc4[n+]3CC(=O)O)cc2C2CCCC21 (centres unmarked) [(65)] | 0.236 | 2.96 | 4.67 | B (the compound is good in the subtype identification (namely, the resolution R is 0.15 or more and less than 0.5)) | 
CCOC(=O)Cn1c(=O)/c(=C\c2ccc3c(c2)C2CCCC2N3Cc2ccccc2)s/c1=C1/SC(=O)N(CC)C1=O (centres unmarked) [(42)] | 0.616 | 4.19 | 1.79 | A (The compound is very good in the subtype identification (namely, the resolution R is 0.5 or more)) | 

Source: patent publication US10041937B2, “Macrophage identification agent, and identification method, sorting method, evaluation method, screening method and kit using the macrophage identifier agent” (CANON KABUSHIKI KAISHA, priority 2013, dated 2018)
